pEC50: −log10 of the molar value. Numbered stars: 1 amine (or outer) side, 2 acyl side, 3 side chain; on linkers, the order of the positions; unused ones are H or OH. Square brackets hold non-standard residues; d marks the D form. Side chains are listed from the residue outwards. Peptide text beside a SMILES is read from it. * marks the point of attachment. C18 diacid = O=C(O)CCCCCCCCCCCCCCCCC(=O)*; γGlu = O=C(O)[C@H](CCC(=O)[*:2])N[*:1]; Ac4c = NC1(C(=O)O)CCC1; AEEA = NCCOCCOCC(=O)O; Aib = CC(C)(N)C(=O)O

A word on the pEC50: it is the EC50 on a negative log10 scale, so that one unit is a factor of ten.

The target of this assay is T1, human glucagon receptor (Homo sapiens, UniProt P47871).
T1 construct: expressed in transfected cells; host or cells: BHK cells (parent BHK570, CRE luciferase clone BHK/KZ10-20-48), clone pLJ6'-4-25
T1 sequence (P47871 26-477): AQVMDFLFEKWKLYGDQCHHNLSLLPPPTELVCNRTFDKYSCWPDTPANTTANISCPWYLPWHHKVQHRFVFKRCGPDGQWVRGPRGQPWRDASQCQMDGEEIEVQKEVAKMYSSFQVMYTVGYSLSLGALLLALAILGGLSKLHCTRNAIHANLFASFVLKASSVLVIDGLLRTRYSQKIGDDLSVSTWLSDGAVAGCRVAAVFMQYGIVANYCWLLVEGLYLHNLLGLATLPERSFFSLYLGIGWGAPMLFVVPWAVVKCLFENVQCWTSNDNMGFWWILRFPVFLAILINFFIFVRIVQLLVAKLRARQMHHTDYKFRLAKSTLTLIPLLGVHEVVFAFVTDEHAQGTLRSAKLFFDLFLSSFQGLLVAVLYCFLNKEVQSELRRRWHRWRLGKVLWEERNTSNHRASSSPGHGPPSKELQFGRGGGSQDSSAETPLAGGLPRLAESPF
As to the kind of experiment: Glucagon receptor potency, CRE luciferase reporter gene assay in BHK cells. Type of assay: cell-based. The following applies: BHK cells expressing human glucagon receptor, read-out: EC50 GlucR. The gist of the method: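 EC50 (pM) comes from a four-parameter fit of luciferase luminescence after 3 h at 37 °C with compound at final 1×10EE-13–1×10EE-6 M. Cells: BHK570-derived line carrying human glucagon receptor plus CRE-luciferase, 5×10EE3/well, in assay medium with 2% ovalbumin, 0.2% Pluronic F-68.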
For orientation: A reporter such as luciferase makes a cellular process visible.
Regarding `CC(C)C[C@H](NC(=O)[C@H](Cc1ccc(O)cc1)NC(=O)[C@H](CCCCN)NC(=O)[C@H](CO)NC(=O)[C@H](CC(C)C)NC(=O)[C@H](CC(=O)O)NC(=O)[C@H](CO)NC(=O)[C@@H](NC(=O)[C@H](Cc1ccccc1)NC(=O)[C@@H](NC(=O)CNC(=O)[C@H](CCC(N)=O)NC(=O)C(C)(C)NC(=O)[C@@H](N)Cc1c[nH]cn1)[C@@H](C)O)[C@@H](C)O)C(=O)N[C@@H](CCC(=O)O)C(=O)N[C@@H](CO)C(=O)N[C@@H](CCCCN)C(=O)N[C@@H](CCCNC(=N)N)C(=O)N[C@@H](C)C(=O)N[C@@H](CCCNC(=N)N)C(=O)N[C@@H](CCC(=O)O)C(=O)N[C@@H](Cc1ccccc1)C(=O)N[C@H](C(=O)N[C@@H](CCC(N)=O)C(=O)N[C@@H](Cc1c[nH]c2ccccc12)C(=O)N[C@@H](CC(C)C)C(=O)N[C@@H](CC(C)C)C(=O)N[C@@H](CCCCNC(=O)CC[C@H](NC(=O)CC[C@H](NC(=O)[C@H](CO)NC(=O)[C@H](CCC(=O)O)NC(=O)[C@H](CO)NC(=O)CC[C@H](NC(=O)CC[C@H](NC(=O)CCCCCCCCCCCCCCCCC(=O)O)C(=O)O)C(=O)O)C(=O)O)C(=O)O)C(=O)N[C@H](C(N)=O)[C@@H](C)O)C(C)C` [Example 52] (H-H[Aib]QGTFTSDLSKYLESKRAREFVQWLLK([γGlu-γGlu-Ser-Glu-Ser-γGlu-γGlu-C18 diacid])T-NH2; N-terminus assumed), the pEC50 was 10.80. The result for `CC(C)C[C@H](NC(=O)[C@H](Cc1ccc(O)cc1)NC(=O)[C@H](CCCCN)NC(=O)[C@H](CO)NC(=O)[C@H](CC(C)C)NC(=O)[C@H](CC(=O)O)NC(=O)[C@H](CO)NC(=O)[C@@H](NC(=O)[C@H](Cc1ccccc1)NC(=O)[C@@H](NC(=O)CNC(=O)[C@H](CCC(N)=O)NC(=O)C1(NC(=O)[C@@H](N)Cc2c[nH]cn2)CCC1)[C@@H](C)O)[C@@H](C)O)C(=O)N[C@@H](CCC(=O)O)C(=O)N[C@@H](CO)C(=O)N[C@@H](CCCNC(=N)N)C(=O)N[C@@H](CCCNC(=N)N)C(=O)N[C@@H](C)C(=O)N[C@@H](CCC(N)=O)C(=O)N[C@@H](CC(=O)O)C(=O)N[C@@H](Cc1ccccc1)C(=O)N[C@H](C(=O)N[C@@H](CCC(N)=O)C(=O)N[C@@H](Cc1c[nH]c2ccccc12)C(=O)N[C@@H](CC(C)C)C(=O)N[C@@H](CC(C)C)C(=O)N[C@@H](CCCCNC(=O)COCCOCCNC(=O)COCCOCCNC(=O)CC[C@H](NC(=O)CC[C@H](NC(=O)CC[C@H](NC(=O)CCCCCCCCCCCCCCCCC(=O)O)C(=O)O)C(=O)O)C(=O)O)C(=O)N[C@H](C(N)=O)[C@@H](C)O)C(C)C` [Example 63, N^ε28-[2-[2-[2-[[2-[2-[2-[[(4S)-4-carboxy-4-[[(4S)-4-carboxy-4-[[(4S)-4-carboxy-4-(17-carboxyheptadecanoylamino)butanoyl]amino]butanoyl]amino]butanoyl]amino]ethoxy]ethoxy]acetyl]amino]ethoxy]ethoxy]acetyl]-[Acb2,Leu10,Glu15,Leu27,Lys28]-Glucagon amide] (H-H[Ac4c]QGTFTSDLSKYLESRRAQDFVQWLLK([AEEA-AEEA-γGlu-γGlu-γGlu-C18 diacid])T-NH2; N-terminus assumed) reads 10.62; that for `CC(C)C[C@H](NC(=O)[C@H](Cc1ccc(O)cc1)NC(=O)[C@H](CCCCN)NC(=O)[C@H](CO)NC(=O)[C@H](CC(C)C)NC(=O)[C@H](CC(=O)O)NC(=O)[C@H](CO)NC(=O)[C@@H](NC(=O)[C@H](Cc1ccccc1)NC(=O)[C@@H](NC(=O)CNC(=O)[C@H](CCC(N)=O)NC(=O)C(C)(C)NC(=O)[C@@H](N)Cc1c[nH]cn1)[C@@H](C)O)[C@@H](C)O)C(=O)N[C@@H](CCC(=O)O)C(=O)N[C@@H](CO)C(=O)N[C@@H](CCCNC(=N)N)C(=O)N[C@@H](CCCNC(=N)N)C(=O)N[C@@H](C)C(=O)N[C@@H](CCCNC(=N)N)C(=O)N[C@@H](CCC(=O)O)C(=O)N[C@@H](Cc1ccccc1)C(=O)N[C@H](C(=O)N[C@@H](CCC(N)=O)C(=O)N[C@@H](Cc1c[nH]c2ccccc12)C(=O)N[C@@H](CC(C)C)C(=O)N[C@@H](CC(C)C)C(=O)N[C@@H](CCCCNC(=O)CC[C@H](NC(=O)CC[C@H](NC(=O)[C@H](CO)NC(=O)[C@H](CCC(=O)O)NC(=O)[C@H](CO)NC(=O)CC[C@H](NC(=O)CC[C@H](NC(=O)CCCCCCCCCCCCCCCCC(=O)O)C(=O)O)C(=O)O)C(=O)O)C(=O)O)C(=O)N[C@H](C(N)=O)[C@@H](C)O)C(C)C` [Example 67, N^ε28-[(4S)-4-carboxy-4-[[(4S)-4-carboxy-4-[[(2S)-2-[[(2S)-4-carboxy-2-[[(2S)-2-[[(4S)-4-carboxy-4-[[(4S)-4-carboxy-4-(17-carboxyheptadecanoylamino)butanoyl]amino]butanoyl]amino]-3-hydroxypropanoyl]amino]butanoyl]amino]-3-hydroxypropanoyl]amino]butanoyl]amino]butanoyl]-[Aib2,Leu10,Glu15,Arg20,Glu21,Leu27,Lys28]-Glucagon amide] (H-H[Aib]QGTFTSDLSKYLESRRAREFVQWLLK([γGlu-γGlu-Ser-Glu-Ser-γGlu-γGlu-C18 diacid])T-NH2; N-terminus assumed), 11.00; that for `CC(C)C[C@H](NC(=O)[C@H](Cc1ccc(O)cc1)NC(=O)[C@H](CCCCN)NC(=O)[C@H](CO)NC(=O)[C@H](CC(C)C)NC(=O)[C@H](CC(=O)O)NC(=O)[C@H](CO)NC(=O)[C@@H](NC(=O)[C@H](Cc1ccccc1)NC(=O)[C@@H](NC(=O)CNC(=O)[C@H](CCC(N)=O)NC(=O)C(C)(C)NC(=O)[C@@H](N)Cc1c[nH]cn1)[C@@H](C)O)[C@@H](C)O)C(=O)N[C@@H](CCC(=O)O)C(=O)N[C@@H](CO)C(=O)N[C@@H](CCCNC(=N)N)C(=O)N[C@@H](CCCNC(=N)N)C(=O)N[C@@H](C)C(=O)N[C@@H](CCCNC(=N)N)C(=O)N[C@@H](CCC(=O)O)C(=O)N[C@@H](Cc1ccccc1)C(=O)N[C@H](C(=O)N[C@@H](CCC(N)=O)C(=O)N[C@@H](Cc1c[nH]c2ccccc12)C(=O)N[C@@H](CC(C)C)C(=O)N[C@@H](CC(C)C)C(=O)N[C@@H](CCCCNC(=O)CC[C@H](NC(=O)CC[C@H](NC(=O)COCCOCCNC(=O)COCCOCCNC(=O)CC[C@H](NC(=O)CCCCCCCCCCCCCCCCC(=O)O)C(=O)O)C(=O)O)C(=O)O)C(=O)N[C@H](C(N)=O)[C@@H](C)O)C(C)C` [Example 23, N^ε28-[(4S)-4-carboxy-4-[[(4S)-4-carboxy-4-[[2-[2-[2-[[2-[2-[2-[[(4S)-4-carboxy-4-(17-carboxyheptadecanoylamino)butanoyl]amino]ethoxy]ethoxy]acetyl]amino]ethoxy]ethoxy]acetyl]amino]butanoyl]amino]butanoyl]-[Aib2,Leu10,Glu15,Arg20,Glu21,Leu27,Lys28]-Glucagon amide] (H-H[Aib]QGTFTSDLSKYLESRRAREFVQWLLK([γGlu-γGlu-AEEA-AEEA-γGlu-C18 diacid])T-NH2; N-terminus assumed), 10.11. In the case of `CC(C)C[C@H](NC(=O)[C@H](CC(=O)O)NC(=O)[C@H](CC(C)C)NC(=O)[C@H](Cc1ccc(O)cc1)NC(=O)[C@H](CCCNC(=N)N)NC(=O)[C@H](CO)NC(=O)[C@H](CC(C)C)NC(=O)[C@H](CC(=O)O)NC(=O)[C@H](CO)NC(=O)[C@@H](NC(=O)[C@H](Cc1ccccc1)NC(=O)[C@@H](NC(=O)CNC(=O)[C@H](CCC(N)=O)NC(=O)C1(NC(=O)[C@@H](N)Cc2c[nH]cn2)CCC1)[C@@H](C)O)[C@@H](C)O)C(=O)N[C@@H](CCCNC(=N)N)C(=O)N[C@@H](CCCNC(=N)N)C(=O)N[C@@H](C)C(=O)N[C@@H](CCCNC(=N)N)C(=O)N[C@@H](CC(=O)O)C(=O)N[C@@H](Cc1ccccc1)C(=O)N[C@H](C(=O)N[C@@H](CCC(N)=O)C(=O)N[C@@H](Cc1c[nH]c2ccccc12)C(=O)N[C@@H](CC(C)C)C(=O)N[C@@H](CC(C)C)C(=O)N[C@@H](CCCCNC(=O)CC[C@H](NC(=O)CC[C@H](NC(=O)COCCOCCNC(=O)COCCOCCNC(=O)CC[C@H](NC(=O)CC[C@H](NC(=O)CCCCCCCCCCCCCCCCC(=O)O)C(=O)O)C(=O)O)C(=O)O)C(=O)O)C(=O)N[C@H](C(N)=O)[C@@H](C)O)C(C)C` [Example 46, N^ε28-[(4S)-4-carboxy-4-[[(4S)-4-carboxy-4-[[2-[2-[2-[[2-[2-[2-[[(4S)-4-carboxy-4-[[(4S)-4-carboxy-4-(17-carboxyheptadecanoylamino)butanoyl]amino]butanoyl]amino]ethoxy]ethoxy]acetyl]amino]ethoxy]ethoxy]acetyl]amino]butanoyl]amino]butanoyl]-[Acb2,Leu10,Arg12,Leu16,Arg20,Leu27,Lys28]-Glucagon amide] (H-H[Ac4c]QGTFTSDLSRYLDLRRARDFVQWLLK([γGlu-γGlu-AEEA-AEEA-γGlu-γGlu-C18 diacid])T-NH2; N-terminus assumed), the negative-log EC50 (pEC50) is 10.80.

The values are drawn from patent US9474790B2, “Stable, protracted GLP-1/glucagon receptor co-agonists for medical use” (Novo Nordisk A/S, priority 2013, dated 2016).
